Where two headings read alike, the source gives them in different places.
Experiments:
[1] = tested on: 5-enolpyruvylshikimate-3-phosphate synthase (EPSPS), P. hysterophorus accessions from Dominican Republic; conditions: read-out: I50 (μM)^a, natural mutant, native extract, other EPSPS alleles/copies not excluded, buffer as for Cu-S, stated gain
Source text: phosphate release (EnzCheck phosphate assay kit), leaf extract on 5-enolpyruvylshikimate-3-phosphate synthase (EPSPS), P. hysterophorus accessions from Dominican Republic

[2] = tested on: 5-enolpyruvylshikimate-3-phosphate synthase (EPSPS), P. hysterophorus accessions from Dominican Republic; test: phosphate release (EnzCheck phosphate assay kit), leaf extract; type: biochemical, Parthenium hysterophorus; conditions: buffer as for Cu-S, read-out: I50 (μM)^a
[3] = tested on: 5-enolpyruvylshikimate-3-phosphate synthase (EPSPS), P. hysterophorus accessions from Cuba; test: as above; type: biochemical, Parthenium hysterophorus; conditions: read-out: I50 (μM)^a
[4] = tested on: 5-enolpyruvylshikimate-3-phosphate synthase (EPSPS), P. hysterophorus accessions from Cuba; conditions: read-out: I50 (μM)^a; accession Cu-R1; natural mutant, native extract, other EPSPS alleles/copies not excluded; buffer as for Cu-S; stated gain
Source text: phosphate release (EnzCheck phosphate assay kit), leaf extract on 5-enolpyruvylshikimate-3-phosphate synthase (EPSPS), P. hysterophorus accessions from Cuba

O=C(O)CNCP(=O)(O)O [glyphosate, (N-phosphonomethyl)-glycine]
IC50 ([1]; accession Do-R1): 468 ± 22 µM
IC50 ([1]; accession Do-R2): 411 ± 26.1 µM
IC50 ([2]; accession Do-R3 (resistant plants, no Pro106 change)): 22.6 ± 1.5 µM
IC50 ([2]; accession Do-R4 (resistant plants, no Pro106 change)): 20.8 ± 6.1 µM
IC50 ([2]; accession Do-S (susceptible)): 18.5 ± 5.7 µM
IC50 ([3]; accession Cu-R2 (resistant plants, no Pro106 change), buffer as for Cu-S): 18.9 ± 1.4 µM
IC50 ([3]; accession Cu-R3 (resistant plants, no Pro106 change), buffer as for Cu-S): 17.4 ± 2.8 µM
IC50 ([3]; accession Cu-S (susceptible), 100 mM MOPS, 1 mM MgCl2, 10% glycerol, 2 mM sodium molybdate, 200 mM NaF): 13.6 ± 2.2 µM
IC50 [4]: 646 ± 35.8 µM
